Activity calls are given as the source filed them. The rule behind the calls is not given here.
Key:
HCT-116 [1] = assay: Induction of apoptosis in human HCT-116 cells assessed as viable cells at 1.25 mM incubated for 48 hrs by Annexin V-FITC/PI staining based flow cytometric analysis (reference value: 42.5 %); format: functional; conditions: HCT-116, 48 h, read-out: Activity
HCT-116 [2] = assay: Induction of morphological changes in human HCT-116 cells assessed as appearance of freely floating cells at 10 mM incubated for 24 to 72 hrs by inverted microscopic analysis; format: functional, cell-based; conditions: time 24-72 hrs
HCT-116 [3] = assay: Induction of apoptosis in human HCT-116 cells assessed as increase in apoptotic rate at 2.5 mM incubated for 48 hrs by Annexin V-FITC/PI staining based flow cytometric analysis relative to control; format: functional
HCT-116 [4] = assay: Induction of apoptosis in human HCT-116 cells assessed as increase in apoptotic rate at 1.25 mM incubated for 48 hrs by Annexin V-FITC/PI staining based flow cytometric analysis relative to control; format: functional
HCT-116 [5] = assay: Induction of apoptosis in human HCT-116 cells assessed as necrotic cells at 5 mM incubated for 48 hrs by Annexin V-FITC/PI staining based flow cytometric analysis (reference value: 0.16 %); format: functional
HCT-116 [6] = assay: Induction of apoptosis in human HCT-116 cells assessed as late apoptotic cells at 5 mM incubated for 48 hrs by Annexin V-FITC/PI staining based flow cytometric analysis (reference value: 2.13 %); format: functional
HCT-116 [7] = assay: Induction of cell cycle arrest in human HCT-116 cells assessed as accumulation of cells at S phase at 2.5 mM incubated for 48 hrs by PI staining based flow cytometric analysis (reference value: 10 %); format: functional
CCD-841CoN [8] = assay: Cytotoxicity against human CCD-841CoN cells at 10 mM incubated for 72 hrs by MTT assay; format: toxicity, cell-based; conditions: 10000 µM
HCT-116 [9] = assay: Induction of cell cycle arrest in human HCT-116 cells assessed as accumulation of cells at S phase at 5 mM incubated for 48 hrs by PI staining based flow cytometric analysis (reference value: 10 %); format: functional
HCT-116 [10] = assay: Cytotoxicity against human HCT-116 cells assessed as reduction in cell viability at 10 mM incubated for 48 hrs by MTT assay (reference value: 100%); format: functional
HCT-116 [11] = assay: Induction of cell cycle arrest in human HCT-116 cells assessed as accumulation of cells at G2/M phase at 2.5 mM incubated for 48 hrs by PI staining based flow cytometric analysis (reference value: 14 %); format: functional
HCT-116 [12] = assay: Induction of apoptosis in human HCT-116 cells assessed as increase in apoptotic rate at 5 mM incubated for 48 hrs by Annexin V-FITC/PI staining based flow cytometric analysis relative to control; format: functional
HCT-116 [13] = assay: Induction of cell cycle arrest in human HCT-116 cells assessed as accumulation of cells at G2/M phase at 5 mM incubated for 48 hrs by PI staining based flow cytometric analysis (reference value: 14 %); format: functional
HCT-116 [14] = assay: Induction of morphological changes in human HCT-116 cells assessed as change in cell shape at 2.5 to 10 mM incubated for 24 to 72 hrs by inverted microscopic analysis; format: functional, cell-based; conditions: dose 2.5-10 mM, time 24-72 hrs
HCT-116 [15] = assay: Induction of cell cycle arrest in human HCT-116 cells assessed as accumulation of cells at G0/G1 phase at 5 mM incubated for 48 hrs by PI staining based flow cytometric analysis (reference value: 74.6 %); format: functional
HCT-116 [16] = assay: Induction of apoptosis in human HCT-116 cells assessed as necrotic cells at 2.5 mM incubated for 48 hrs by Annexin V-FITC/PI staining based flow cytometric analysis (reference value: 0.16 %); format: functional
CCD-841CoN [17] = assay: Cytotoxicity against human CCD-841CoN cells at 0.25 to 10 mM incubated for 24 to 48 hrs by MTT assay; format: toxicity, cell-based; conditions: 10000 µM, dose lower 0.25 mM, time lower 24 hrs, dose upper 10 mM, time upper 48 hrs
HCT-116 [18] = assay: Induction of apoptosis in human HCT-116 cells assessed as early apoptotic cells at 2.5 mM incubated for 48 hrs by Annexin V-FITC/PI staining based flow cytometric analysis (reference value: 55.2 %); format: functional
HCT-116 [19] = assay: Induction of apoptosis in human HCT-116 cells assessed as early apoptotic cells at 10 mM incubated for 48 hrs by Annexin V-FITC/PI staining based flow cytometric analysis (reference value: 55.2 %); format: functional
HCT-116 [20] = assay: Induction of cell cycle arrest in human HCT-116 cells assessed as accumulation of cells at G0/G1 phase at 1.25 mM incubated for 48 hrs by PI staining based flow cytometric analysis (reference value: 74.6 %); format: functional
HCT-116 [21] = assay: Induction of apoptosis in human HCT-116 cells assessed as increase in apoptotic rate at 10 mM incubated for 48 hrs by Annexin V-FITC/PI staining based flow cytometric analysis relative to control; format: functional
HCT-116 [22] = assay: Inhibition of colony formation in human HCT-116 cells at 0.25 to 10 mM incubated for 10 days by crystal violet staining based analysis; format: functional, cell-based; conditions: dose 0.25-10 mM, time 10.0 day
HCT-116 [23] = assay: Induction of morphological changes in human HCT-116 cells assessed as blebbing of cells at 2.5 to 10 mM incubated for 24 to 72 hrs by inverted microscopic analysis; format: functional, cell-based; conditions: dose 2.5-10 mM, time 24-72 hrs
HCT-116 [24] = assay: Induction of cell cycle arrest in human HCT-116 cells assessed as accumulation of cells at S phase at 1.25 mM incubated for 48 hrs by PI staining based flow cytometric analysis (reference value: 10 %); format: functional
HCT-116 [25] = assay: Induction of cell cycle arrest in human HCT-116 cells assessed as accumulation of cells at G0/G1 phase at 2.5 mM incubated for 48 hrs by PI staining based flow cytometric analysis (reference value: 74.6 %); format: functional
HCT-116 [26] = assay: Induction of cell cycle arrest in human HCT-116 cells assessed as accumulation of cells at S phase at 10 mM incubated for 48 hrs by PI staining based flow cytometric analysis (reference value: 10 %); format: functional
HCT-116 [27] = assay: Induction of apoptosis in human HCT-116 cells assessed as early apoptotic cells at 5 mM incubated for 48 hrs by Annexin V-FITC/PI staining based flow cytometric analysis (reference value: 55.2 %); format: functional
HCT-116 [28] = assay: Cytotoxicity against human HCT-116 cells assessed as reduction in ATP level at 0.25 to 10 mM by CellTiter-Glo assay; format: functional, cell-based; conditions: dose 0.25-10 mM, time 24-72 hrs
HCT-116 [29] = assay: Induction of cell cycle arrest in human HCT-116 cells assessed as accumulation of cells at G0/G1 phase at 10 mM incubated for 48 hrs by PI staining based flow cytometric analysis (reference value: 74.6 %); format: functional
HCT-116 [30] = assay: Induction of morphological changes in human HCT-116 cells assessed as appearance of disorganized cell layers at 2.5 to 10 mM incubated for 24 to 72 hrs by inverted microscopic analysis; format: functional, cell-based; conditions: dose 2.5-10 mM, time 24-72 hrs
HCT-116 [31] = assay: Induction of morphological changes in human HCT-116 cells assessed as rupture of plasma membrane at 2.5 to 10 mM incubated for 24 to 72 hrs by inverted microscopic analysis; format: functional, cell-based; conditions: dose 2.5-10 mM, time 24-72 hrs
HCT-116 [32] = assay: Cytotoxicity against human HCT-116 cells assessed as reduction in cell viability at 10 mM incubated for 72 hrs by MTT assay (reference value: 100%); format: functional
HCT-116 [33] = assay: Induction of cell cycle arrest in human HCT-116 cells assessed as accumulation of cells at G2/M phase at 10 mM incubated for 48 hrs by PI staining based flow cytometric analysis (reference value: 14 %); format: functional
HCT-116 [34] = assay: Induction of apoptosis in human HCT-116 cells assessed as increase in Bax/Bcl2 ratio incubated for 48 hrs by Western blotting analysis; format: functional, cell-based; conditions: dose 2.5-5 mM
HCT-116 [35] = assay: Induction of apoptosis in human HCT-116 cells assessed as late apoptotic cells at 2.5 mM incubated for 48 hrs by Annexin V-FITC/PI staining based flow cytometric analysis (reference value: 2.13 %); format: functional
HCT-116 [36] = assay: Induction of apoptosis in human HCT-116 cells assessed as necrotic cells at 10 mM incubated for 48 hrs by Annexin V-FITC/PI staining based flow cytometric analysis (reference value: 0.16 %); format: functional
HCT-116 [37] = assay: Induction of morphological changes in human HCT-116 cells assessed as rounding of cells at 2.5 to 10 mM incubated for 24 to 72 hrs by inverted microscopic analysis; format: functional, cell-based; conditions: dose 2.5-10 mM, time 24-72 hrs
HCT-116 [38] = assay: Induction of apoptosis in human HCT-116 cells assessed as early apoptotic cells at 1.25 mM incubated for 48 hrs by Annexin V-FITC/PI staining based flow cytometric analysis (reference value: 55.2 %); format: functional
HCT-116 [39] = assay: Induction of apoptosis in human HCT-116 cells assessed as late apoptotic cells at 1.25 mM incubated for 48 hrs by Annexin V-FITC/PI staining based flow cytometric analysis (reference value: 2.13 %); format: functional
HCT-116 [40] = assay: Induction of apoptosis in human HCT-116 cells assessed as viable cells at 5 mM incubated for 48 hrs by Annexin V-FITC/PI staining based flow cytometric analysis (reference value: 42.5 %); format: functional; conditions: HCT-116, 48 h, read-out: Activity
HCT-116 [41] = assay: Cytotoxicity against human HCT-116 cells assessed as reduction in ATP level incubated for 24 to 72 hrs by CellTiter-Glo assay; format: functional, cell-based; conditions: dose 0.25-10 mM, time 24-72 hrs
HCT-116 [42] = assay: Induction of apoptosis in human HCT-116 cells assessed as viable cells at 2.5 mM incubated for 48 hrs by Annexin V-FITC/PI staining based flow cytometric analysis (reference value: 42.5 %); format: functional; conditions: HCT-116, 48 h, read-out: Activity
HCT-116 [43] = assay: Induction of morphological changes in human HCT-116 cells assessed as appearance of lobules at 2.5 to 10 mM incubated for 24 to 72 hrs by inverted microscopic analysis; format: functional, cell-based; conditions: dose 2.5-10 mM, time 24-72 hrs
HCT-116 [44] = assay: Induction of apoptosis in human HCT-116 cells assessed as late apoptotic cells at 10 mM incubated for 48 hrs by Annexin V-FITC/PI staining based flow cytometric analysis (reference value: 2.13 %); format: functional
HCT-116 [45] = assay: Induction of apoptosis in human HCT-116 cells assessed as necrotic cells at 1.25 mM incubated for 48 hrs by Annexin V-FITC/PI staining based flow cytometric analysis (reference value: 0.16 %); format: functional
HCT-116 [46] = assay: Induction of ROS generation in human HCT-116 cells assessed as increase in superoxide anion at 1.25 to 10 mM incubated for 48 hrs by DHE fluorescence based analysis; format: functional, cell-based; conditions: dose 1.25-10 mM
HCT-116 [47] = assay: Cytotoxicity against human HCT-116 cells assessed as reduction in cell viability at 10 mM incubated for 24 hrs by MTT assay (reference value: 100%); format: functional
HCT-116 [48] = assay: Induction of apoptosis in human HCT-116 cells assessed as viable cells at 10 mM incubated for 48 hrs by Annexin V-FITC/PI staining based flow cytometric analysis (reference value: 42.5 %); format: functional; conditions: HCT-116, 48 h, read-out: Activity
HCT-116 [49] = assay: Induction of cell cycle arrest in human HCT-116 cells assessed as accumulation of cells at G2/M phase at 1.25 mM incubated for 48 hrs by PI staining based flow cytometric analysis (reference value: 14 %); format: functional

For `CCc1ccc(OS(=O)(=O)O)cc1`, the viability at 1250 µM (HCT-116 [1]) was 27.6%, the Activity (HCT-116 [2]) was “Active” and the Activity (HCT-116 [3]) was 73%. It also gave an Activity (HCT-116 [4]) of 52%, an Activity (HCT-116 [5]) of 0.076% and an Activity (HCT-116 [6]) of 19.8%. For the same molecule, the Activity (HCT-116 [7]) was 15.4%, the Activity (CCD-841CoN [8]) was “Non-toxic” and the Activity (HCT-116 [9]) was 9.8%. It also gave an Activity (HCT-116 [10]) of 24%, an Activity (HCT-116 [11]) of 19.7% and an Activity (HCT-116 [12]) of 81%. For the same molecule, the Activity (HCT-116 [13]) was 29.8%, the Activity (HCT-116 [14]) was “Active” and the Activity (HCT-116 [15]) was 59.6%. For the same molecule, the Activity (HCT-116 [16]) was 0.065%, the Activity (CCD-841CoN [17]) was “Non-toxic” and the Activity (HCT-116 [18]) was 70.1%. It also gave an Activity (HCT-116 [19]) of 48.3%, an Activity (HCT-116 [20]) of 70.8% and an Activity (HCT-116 [21]) of 97%. For the same molecule, the inhibition (HCT-116 [22]) was “Active”, the Activity (HCT-116 [23]) was “Active” and the Activity (HCT-116 [24]) was 9%. The Activity (HCT-116 [25]) was 64%, the Activity (HCT-116 [26]) was 13.5% and the Activity (HCT-116 [27]) was 71.9%. The Activity (HCT-116 [28]) was “Time-dependent-effect”, the Activity (HCT-116 [29]) was 55.4% and the Activity (HCT-116 [30]) was “Active”. For the same molecule, the Activity (HCT-116 [31]) was “Active”, the Activity (HCT-116 [32]) was 7% and the Activity (HCT-116 [33]) was 27.2%. The Activity (HCT-116 [34]) was “Dose-dependent-effect”, the Activity (HCT-116 [35]) was 7.36% and the Activity (HCT-116 [36]) was 0.067%. For the same molecule, the Activity (HCT-116 [37]) was “Active”, the Activity (HCT-116 [38]) was 68.6% and the Activity (HCT-116 [39]) was 3.78%. The viability at 5000 µM (HCT-116 [40]) was 8.22%, the Activity (HCT-116 [41]) was “Dose-dependent-effect” and the viability at 2500 µM (HCT-116 [42]) was 22.5%. For the same molecule, the Activity (HCT-116 [43]) was “Active”, the Activity (HCT-116 [44]) was 50.8% and the Activity (HCT-116 [45]) was 0.048%. For the same molecule, the Activity (HCT-116 [46]) was “Active”, the Activity (HCT-116 [47]) was 55% and the viability at 10000 µM (HCT-116 [48]) was 0.84%. The Activity (HCT-116 [49]) was 19.7%.
